Measured values from patent US20140228715A1, “Method and Apparatus for Delivering a Substance” (The General Hospital Corporation, priority 2011, published 2014).

Assay: Franz diffusion cell permeability of GI tissue exposed to ultrasound, scintigraphy of tissue and receiver chamber
Conditions: 1-MHz, 1.4 W/cm^2; 5 min ultrasound + 55 min passive diffusion vs 30 min + 30 min

inulin
transport into or across the tissue, effect of irradiation profile: the longer irradiation time was more effective
